Measured values as given in patent publication US5705649A, “Protein staining compositions and methods” (Promega Corporation, priority 1995, dated 1998).

How the values were obtained:
[1] = test system: Promega Mid-Range Molecular Weight Standards; assay: Quantitation of proteins separated by SDS-PAGE, sensitivity overall; conditions: extracted bands
Method: A 10% SDS-PAGE gel was made as described in the Example 5. Promega Mid-Range Molecular Weight Standards were diluted into loading buffer to produce solutions containing 2.0, 1.0, 0.5, and 0.25 μg of protein per band in 5 μl of solution. Duplicate 5 μl solutions of each of these solutions were loaded into 1 of the 10 sample wells in the gel after the solutions were heated at 95° C. for 10 minutes. The gel was then electrophoresed at 160 V until the running dye just eluted from the bottom of the gel. The gel was destained, and signal from stained protein enhanced, for 90 minutes in 30% methanol, 4% acetic acid.
One of the pair of duplicate bands for the 97.4, 66.2, 55.0 and 42.7 kilodalton standards from the lanes containing 2.0, 1.0, 0.5, and 0.25 μg of protein per band were excised with a razor blade as were two control gel segments from regions of the gel not containing protein. The excised segments were placed in individual 1.5 ml Eppendorf tubes containing 2% SDS and allowed to incubate at room temperature for 72 hours. After this time, the solutions were removed from the extracted segments and acetic acid was added to 2% (v/v) final concentration. The absorption of the solutions at […] was then measured.

protein (BSA) = assay: Sensitive solution protein quantitation assay; parameters: species or system bovine; conditions: 0.5M tris base, 3 hours
Method: In order to conclusively determine a format for the sensitive quantitation of protein in solution using Promega Green 1, Promega Green 1 stock solution was diluted at ratios of 1:250 (v/v) and 1:1000 (v/v) into 0.5M tris base containing 0, 5, 10, 20, 40, 60, 80, and 100 μg protein (BSA) per ml of solution. […]

Absorption (protein (BSA); dye 1:250, protein 0 μg/ml): 0.543
Absorption (protein (BSA); dye 1:250, protein 5 μg/ml): 0.515
Absorption (protein (BSA); dye 1:250, protein 10 μg/ml): 0.472
Absorption (protein (BSA); dye 1:250, protein 20 μg/ml): 0.427
Absorption (protein (BSA); dye 1:250, protein 40 μg/ml): 0.386
Absorption (protein (BSA); dye 1:250, protein 60 μg/ml): 0.358
Absorption (protein (BSA); dye 1:250, protein 80 μg/ml): 0.342
Absorption (protein (BSA); dye 1:250, protein 100 μg/ml): 0.317
Absorption (protein (BSA); dye 1:1000, protein 0 μg/ml): 0.079
Absorption (protein (BSA); dye 1:1000, protein 5 μg/ml): 0.069
Absorption (protein (BSA); dye 1:1000, protein 10 μg/ml): 0.059
Absorption (protein (BSA); dye 1:1000, protein 20 μg/ml): 0.051
Absorption (protein (BSA); dye 1:1000, protein 40 μg/ml): 0.048
Absorption (protein (BSA); dye 1:1000, protein 60 μg/ml): 0.047
Absorption (protein (BSA); dye 1:1000, protein 80 μg/ml): 0.044
Absorption (protein (BSA); dye 1:1000, protein 100 μg/ml): 0.043
Compound: CCCCCCCC(=O)N(c1ccc(OCC)cc1)c1ccc(C(=C2C=CC(=[N+](CC)Cc3cccc(S(=O)(=O)[O-])c3)C=C2)c2ccc(N(CC)Cc3cccc(S(=O)(=O)O)c3)cc2)cc1 [Promega Green 1]
lowest amount of protein measured quantitatively [1]: 250 ng
